The values below come from paper PMC12017328, “RNA toehold switch-based reporter assay to assess bacterial uptake of antisense oligomers” (mBio, 2025).

Data set [1] relates to Salmonella carrying the TS7::sfGFP reporter plasmid. Description: Toehold switch reporter assay, microplate reader. The data set is classed as cell-based, Salmonella enterica serovar Typhimurium strain SL1344. The note with it: CPP conjugated to PNA_toe, 5 µM, TS7-Mut_9::sfGFP, 17 h, MHB; for Fold increase in fluorescence compared to the water-treated control: normalized to OD600. The source says:
Next, we tested whether 11-mer PNAs can activate the toehold switch in bacteria. We established the reporter assay in Salmonella enterica serovar Typhimurium (referred to as Salmonella hereafter), which we have previously used as a model organism for studying PNAs ([13], [17], [22]). In constructing a reporter plasmid, we cloned the TS7 sequence upstream of the coding sequence of superfolder GFP (sfGFP) and downstream of a constitutive PLtetO-1 promoter in the pXG10-SF vector ([35]) (see Materials and Methods for details). The final product is a fusion protein (TS7::sfGFP) in which the 10 amino acids from the short TS7 coding sequence are genetically linked to the N-terminus of sfGFP. We introduced the reporter plasmid in Salmonella. The bacteria were grown to an early log-phase in standard Mueller-Hinton broth (MHB), commonly used for testing antibacterial activity ([36]). As a proof-of-concept, we chose to deliver the PNAs through conjugation with (KFF)3K, a frequently used CPP (referred to as KFF hereafter). We tested two PNAs, PNA_toe as used above in vitro and a PNA that targets the mid-stem region (PNA_mid) of the switch (Fig. 2A). We treated the bacterial culture with varying concentrations (2.5 µM, 5 µM, or 7.5 µM) of the KFF-PNAs in a microtiter plate, recording GFP fluorescence and turbidity as bacterial growth continued.
(§1) Overnight cultures of respective bacterial strains (listed in Table S5) were diluted 1:100 in fresh MHB and grown to OD600 0.3. Overnight and secondary cultures were prepared with or without chloramphenicol (20 µg/mL) depending on the antibiotic resistance profile of the strain. Ninty-five microliters of the 0.3 OD600 bacterial suspension was distributed in the 96-well plate and mixed with 5 µL water or 20× CPP PNA working solutions (150 µM, 100 µM or 50 µM stocks in water). An equivalent volume of water was added to the bacteria to serve as untreated control. For testing the activity in other growth media (M9 minimal medium and LB), the bacteria were cultured in the respective media and treated as described above.
(§2) The PNA-treated samples were incubated in the plate reader for 4–24 h at 37°C, with continuous double-orbital shaking (237 counts per minute). The fluorescence (λex 480 nm/λem 510 nm) and OD600 were recorded in a Synergy H1 plate reader (Biotek) by measuring every 20 min. The bacteria were sampled at various time points post-treatment and further analyzed by flow cytometry.
(§3) Normalization of fluorescence intensity (FInorm) = FI (sample)−FI (medium background)/OD
Fold upregulation in fluorescence intensity (FI) from the plate reader was calculated as follows:
fold upregulation = FI (normalized sample)/FI (normalized control)

In data set [2] the test system is Salmonella, UPEC 536, E. coli MG1655 and BW25113 expressing TS7-Mut_9::sfGFP. Description: Toehold switch reporter assay, flow cytometry, statements for all strains. The note with it: CPP conjugated to PNA_toe, 5 µM; for Dynamics of sfGFP upregulation: measured at 4, 6 and 17 h, all strains. It counts as cell-based, Salmonella enterica; E. coli. On the procedure:
According to previous RNA-seq analyses ([12], [13], [22]), CPP-PNAs can strongly downregulate target mRNAs within 15 min. […] We therefore repeated the screen conducted and assayed fluorescence by flow cytometry at 4, 6, and 17 h post-treatment. […] The level of upregulation observed in the E. coli K12 strains was again substantially lower than in Salmonella and UPEC 536. […] This might be related to the stability of KFF in the culture media.
Fig 9 Flow cytometric analysis of fluorescence of sfGFP informs on delivery efficiency of CPPs. Bacterial cultures expressing the TS7-Mut_9::sfGFP reporter construct treated with the indicated CPP-PNA_toe constructs at 5 µM each. The median fluorescence intensity of sfGFP was measured after 4 h (black bars), 6 h (dark gray bars), and 17 h (light gray bars) of treatment using flow cytometry. Relative upregulation of sfGFP is shown and was calculated by dividing the median fluorescence intensity of the test samples by the median fluorescence intensity of the control samples, to which water was added. Error bars indicate the standard deviation calculated from two independent experiments.
as §1
(§4) Bacterial cells were treated as described above, fixed with 4% paraformaldehyde (PFA) in phosphate-buffered saline (PBS) after the indicated time points, and stained with 1 µg/mL DAPI for flow cytometric measurement of DAPI-positive bacterial cells. Cell suspensions were diluted by a factor of ~100–1,000 in PBS and sampled from 96-well plates to achieve ~2,000 counts/s for flow cytometric measurements. Flow cytometry was performed using the Agilent Novocyte flow cytometer with a high-throughput sampler, and 100,000 events were recorded per sample. The DAPI fluorescence was detected using the Pacific Blue channel; sfGFP and mNeon were detected in the FITC channel, and mCherry fluorescence in the PE-Texas Red channel. The lower threshold for FSC-H was set to 2,000 to eliminate the potential artifacts from smaller particles such as dust, bubbles, or cell debris. The wild-type strains without plasmids served as a control to detect the background fluorescence, termed bacterial background. A contour plot with FSC and SSC, each with bins defined on a logarithmic scale was used to select singlets. The gating strategy is described in Fig.S6. The median fluorescence intensity was used for calculating the fold upregulation of fluorescence. Flow cytometry data sets were analyzed using the Novocyte software (Agilent).
(§5) Fold upregulation in median fluorescence intensity (FI) from flow cytometry was calculated as follows:
(§6) fold upregulation = FI (sample)−FI(bacterial background)/FI (water control)−FI(bacterial background)
For orientation: A reporter such as luciferase makes a cellular process visible.

Data set [3] deals with Salmonella carrying the TS7::sfGFP reporter plasmid. Description: Toehold switch reporter assay, flow cytometry. The data set is classed as cell-based, Salmonella enterica serovar Typhimurium strain SL1344. On the procedure: as §1, §2, §4, §5, §6
The subject of data set [4] is Salmonella ΔsbmA mutant carrying TS7-Mut_9::sfGFP. In words: Toehold switch reporter assay, flow cytometry, ΔsbmA mutant. The data set is classed as cell-based, Salmonella enterica serovar Typhimurium. The note with it: 5 µM, 4 h. From the text:
To confirm that activation of the toehold-switch reporter correlates with successful uptake of PNAs, we used a Salmonella ΔsbmA mutant strain unable to express the inner membrane transporter SbmA. […] In the ΔsbmA strain, treatment with KFF-PNA_toe triggered only marginal GFP expression in a small subpopulation of cells (ca 20%) as opposed to nearly 100% of all cells in the corresponding wild-type strain (Fig. 6A). The overall fluorescence intensity (FI) of the ΔsbmA mutant was also much lower than the wild-type strain (Fig. 6B).
Fig 6 Flow cytometric analysis of CPP-PNA uptake using the toehold switch reporter in a ΔsbmA mutant of Salmonella. […] (B) Median fluorescence intensity values for water-treated control (Control, black) and PNA-treated (KFF-PNA_toe, orange) samples are given in the plots. […]
Bacterial cells were treated as described above, fixed with 4% paraformaldehyde (PFA) in phosphate-buffered saline (PBS) after the indicated time points, and stained with 1 µg/mL DAPI for flow cytometric measurement of DAPI-positive bacterial cells. […] Flow cytometry was performed using the Agilent Novocyte flow cytometer with a high-throughput sampler, and 100,000 events were recorded per sample. The DAPI fluorescence was detected using the Pacific Blue channel; sfGFP and mNeon were detected in the FITC channel, and mCherry fluorescence in the PE-Texas Red channel. […]

The conditions of data set [5]: cited from earlier work. The source says:
For example, we observed a rapid but transient increase in fluorescence for some CPPs (e.g., KFF) and a sustained increase for others (e.g., RXR). This variation can likely be explained by the chemistry and stability of these carriers. […] Therefore, the different dynamics in fluorescence increase c ...

Data set [6] has as its system E. coli BW25113, MG1655 and UPEC 536 carrying TS7-Mut_9::sfGFP. Description: Toehold switch reporter assay, microplate reader, E. coli strains. It counts as cell-based. The note with it: CPP conjugated to PNA_toe; 5 µM; 17 h; MHB; all three E. coli strains.
Description: Having established the CPP screening assay in Salmonella, we next tested it in E. coli. We chose the E. coli K12 strains BW25113 and MG1655, and the uropathogenic isolate E. coli 536 (UPEC 536). […] To test if the low fluorescence was due to lower sfGFP protein levels, we performed a western blot analysis after treating the bacteria with CPP-PNAs (Fig. S4). The upregulation of sfGFP protein correlated with fluorescence upregulation. The E. coli K12 strains were less susceptible than Salmonella. For these strains, a more sensitive method compared to the microplate reader such as flow cytometry might provide better results.
Fig 8 Examining the performance of the toehold switch assay for screening of CPPs against E. coli. Various E. coli strains carrying the TS7-Mut_9::sfGFP encoding plasmid were treated with different CPP-PNA_toe constructs at 5 µM. As negative control, an equal volume of water (Control) was added instead. (A) Fluorescence intensity of sfGFP was recorded in a microplate reader for 17 h post-treatment measured in a microplate reader. (B) Upregulation in sfGFP fluorescence calculated relative to the water control based on the normalized fluorescence intensities at 17 h post-treatment. The experiment was performed two times, and bars indicate the mean value; error bars indicate the standard deviation from two independent experiments.
Overnight cultures of respective bacterial strains (listed in Table S5) were diluted 1:100 in fresh MHB and grown to OD600 0.3. […]
as §2, §3
Fold upregulation in fluorescence intensity (FI) from the plate reader was calculated as follows: […]

For the substance “GRRRRRRRRRPPQ [R9-TAT, cell-penetrating peptide …]”, the “Fold increase in fluorescence compared to the water-treated control” value (“Fold increase in fluorescence” for short) in data set [1] is “negligible upregulation”. Moreover, the “Dynamics of sfGFP upregulation” value in data set [2] is reported as “only showed upregulation at the 17 h time point”.
For the substance KFFKFFKFFK [KFF-PNA_ctrl], the “Activation of GFP expression” value in data set [3] (TS7::sfGFP, 7.5 µM, 4 h post-treatment, MHB) is reported as “did not activate GFP expression”.
Turning to KFFKFFKFFK [KFF-PNA_toe], the “Upregulation of the reporter (median fluorescence vs water control)” value in data set [3] (TS7-Mut_9::sfGFP, 5 µM, 4 h, Luria broth (LB)) is reported as 6- to 8 fold; in data set [3] (original TS7::sfGFP, 4 h, MHB), “around 30 fold”. Also, the “Activation of the reporter (median fluorescence vs water control)” value in data set [3] (TS7-Mut_9::sfGFP, 5 µM, 4 h, M9 minimal medium) is on record as 50- to 60 fold; in data set [3] (TS7-Mut_9::sfGFP, 5 µM, 4 h, MHB, two independent experiments) it was 50- to 60 fold. In addition, the “Activation of the reporter compared with the original switch” value in data set [3] (TS7-Mut_13::sfGFP, 5 µM, 4 h, MHB) is given as “no improvement over the original switch”; in data set [3] (TS7-Mut_18::sfGFP, 5 µM, 4 h, MHB), “no improvement over the original switch”. Further, the GFP positive population is recorded as around 100% in data set [3] (wild-type, TS7-Mut_9::sfGFP, 5 µM, 4 h) and around 20% in data set [4].
As for “KFFKFFKFFK [cell-penetrating peptide …, carrier for PNA]”, in data set [5], the “Stability to proteases and in culture medium” value was “sensitive to proteases and degraded in nutrient-rich media such as MHB”. Further, in data set [1], the “Fold increase in fluorescence” value is reported as “highest fold increase in fluorescence” and the “Speed of increase in fluorescence signal” value is “rapid increase in fluorescence signal”. Besides, in data set [2] (4, 6 and 17 h), the “Change of fluorescence over time” value is listed as “decrease”. The “Dynamics of sfGFP upregulation” value in data set [2] was “rapid upregulation at 4 h”. Further, in data set [6], the “Reporter activation (sfGFP fluorescence vs water control)” value is given as “highest reporter activation”.
With “RKKRRQRR [Seq35, cell-penetrating peptide RKKRRQRR]”, in data set [2], the “Dynamics of sfGFP upregulation” value was “only showed upregulation at the 17 h time point”.
As to “RQIKIWFQNRRMKWKK [ANT, cell-penetrating peptide …]”, the “Fold increase in fluorescence” value in data set [1] is reported as “highest fold increase in fluorescence”. Besides, in data set [2], the “Dynamics of sfGFP upregulation” value is reported as “rapid upregulation at 4 h”.
For “RRRRR [R5, cell-penetrating peptide RRRRR]”, the “Dynamics of sfGFP upregulation” value in data set [2] is on record as “only showed upregulation at the 17 h time point”.
As for “RRWQW [L5a, cell-penetrating peptide RRWQW]”, in data set [1], the “Fold increase in fluorescence” value is listed as “negligible upregulation”.
On to “RXRRXRRXRRXRXB [cell-penetrating peptide RXRRXRRXRRXRXB, carrier for PNA]”, for which the “Stability to proteolytic degradation” value in data set [5] (unconjugated carrier peptide, ref [47]) was “resistant to proteolytic degradation”. In addition, in data set [1], the “Fold increase in fluorescence” value is recorded as “highest fold increase in fluorescence” and the “Speed of increase in fluorescence signal” value is “rapid increase in fluorescence signal”. The “Dynamics of sfGFP upregulation” value in data set [2] is “rapid upregulation at 4 h”. Moreover, the “Reporter activation (sfGFP fluorescence vs water control)” value in data set [6] is reported as “highest reporter activation”.
In the case of “VALLPAVLLA [Seq23, cell-penetrating peptide …]”, the “Fold increase in fluorescence” value in data set [1] is “none”. Also, in data set [2], the “Dynamics of sfGFP upregulation” value is “least active carrier”. For the same substance, the “Reporter activation (sfGFP fluorescence vs water control)” value in data set [6] is on record as “least effective PNA carrier”.
